From publication PMC4755756, “Catalysis-dependent selenium incorporation and migration in the nitrogenase active site iron-molybdenum cofactor” (eLife, 2015) come the findings set out here.

Test [1] has as its target T1, nitrogenase MoFe-protein (Av1) (Azotobacter vinelandii, UniProt P07328).
T1 construct: gene nifD; purified Av1, (αβ)2 tetramer, with Av2; with MoFe-protein β subunit (NifK); Fe-protein (Av2)
In words: inhibition of acetylene reduction, Dixon plot (gas chromatography). The test is classed as biochemical.

The target of test [2] is T1, nitrogenase MoFe-protein (Av1). The test can be described thus: inhibition of acetylene reduction, Dixon plot (gas chromatography); Se incorporation seen by crystallography. The test is classed as biochemical. From the text:
inhibition of acetylene reduction, Dixon plot (gas chromatography); Se incorporation seen by crystallography on nitrogenase MoFe-protein (Av1) | SeCN^- is a potent, yet reversible inhibitor of acetylene reduction

The term Ki denotes a dissociation constant, usually derived from enzyme kinetics or from competition with a known ligand. The low end stands for higher affinity, the high end for lower affinity. Turning to `N#CS` [thiocyanate], the affinity in test [1] corresponds to a Ki of 12.7 ± 1.2 mM.

As for `N#C[SeH]` [selenocyanate], the Ki in test [2] is 0.41 ± 0.03 mM.
